From publication PMC12260505, “First-in-Human Phase I/IIa Study of the First-in-Class CDK2/4/6 Inhibitor PF-06873600 Alone or with Endocrine Therapy in Patients with Breast Cancer” (Clinical Cancer Research, 2025)
Several values for one entry are separate records, joined by “and”; a condition that tells them apart may be missing. Equal entries are not always repeated.

Test: Plasma PF-06873600 pharmacokinetics (LC/MS-MS, noncompartmental analysis)
Type: in vivo, human
Experimental: Plasma samples were analyzed for PF-06873600 concentrations at Q2 Solutions using a validated analytic assay in compliance with Pfizer standard operating procedures. PF-06873600 samples were assayed by a validated LC/MS-MS using positive ionization mode. PK parameters were calculated using noncompartmental analysis of plasma concentration–time data.

[1] = Cycle 1 Day 15, Part 1A 1 mg BID IR
[2] = Cycle 1 Day 15, Part 1A 2 mg BID IR
[3] = Cycle 1 Day 15, Part 1A 5 mg BID IR
[4] = Cycle 1 Day 15, Part 1A 10 mg BID IR
[5] = Cycle 1 Day 15, Part 1A 25 mg BID Biomarker IR
[6] = Cycle 1 Day 15, Part 1A 25 mg BID IR
[7] = Cycle 1 Day 15, Part 1A 35 mg BID IR
[8] = Cycle 1 Day 15, Part 1A 35 mg BID Intm 5/2 IR
[9] = Cycle 1 Day 15, Part 1A 50 mg BID IR
[10] = Cycle 1 Day 15, Part 1B 25 mg BID +Ful IR
[11] = Cycle 1 Day 15, Part 1B 25 mg BID +Let IR
[12] = Cycle 1 Day 15, Part 1C MR 30 mg BID long duration
[13] = Day -4, Part 1C single dose 20 mg MR Long Duration
[14] = Day -7, Part 1C single dose 20 mg MR Short Duration

## C[C@@]1(O)CCC[C@H]1n1c(=O)c(C(F)F)cc2cnc(NC3CCN(S(C)(=O)=O)CC3)nc21 [PF-06873600]
[1]
  Cmax, individual value(s): 10.9 ng/mL
  Cmin, individual value(s): 0.000 ng/mL
  Rac (observed accumulation ratio based on AUC), individual value(s): 1.21
  Tmax, median (range): 1.00 h
[2]
  AUCtau, individual value(s): 51.4 ng·h/mL and 86.9 ng·h/mL
  CL/F, individual value(s): 23.0 L/h and 38.9 L/h
  Cmax, individual value(s): 18.2 ng/mL and 45.4 ng/mL
  Rac (observed accumulation ratio based on AUC), individual value(s): 1.16
  Tmax, median (range): 1.25 h
  Vz/F, individual value(s): 53.3 L and 98.4 L
  t1/2, individual value(s): 5800 s and 6300 s
Cycle 1 Day 15, Part 1A 2 mg BID IR (both patients 0.000)
  Cmin, individual value(s): 0.000 ng/mL
[3]
  AUCtau, individual value(s): 150 ng·h/mL and 483 ng·h/mL
  CL/F, individual value(s): 10.4 L/h and 33.2 L/h
  Cmax, individual value(s): 46.3 ng/mL and 126 ng/mL
  Cmin, individual value(s): 1.19 ng/mL and 23.6 ng/mL
  Rac (observed accumulation ratio based on AUC), individual value(s): 1.53
  Tmax, median (range): 1.20 h
  Vz/F, individual value(s): 124 L
  t1/2, individual value(s): 9320 s
[4]
  AUCtau, geometric mean (%CV): 448.8 (25) ng.h/mL
  CL/F, geometric mean (%CV): 22.28 (24) L/h
  Cmax, geometric mean (%CV): 124.3 (29) ng/mL
  Cmin, geometric mean (%CV): 5.499 (5) ng/mL
  Rac (observed accumulation ratio based on AUC), geometric mean (%CV): 0.7263
  Tmax, median (range): 2.00 h
  Vz/F, geometric mean (%CV): 72.17 (19) L
  t1/2, arithmetic mean±standard deviation: 2.250 h
[5]
  AUCtau, geometric mean (%CV): 1010 (40) ng.h/mL
  CL/F, geometric mean (%CV): 24.76 (40) L/h
  Cmax, geometric mean (%CV): 246.4 (40) ng/mL
  Cmin, geometric mean (%CV): 21.28 (130) ng/mL
  Rac (observed accumulation ratio based on AUC), geometric mean (%CV): 1.254 (49)
  Tmax, median (range): 1.92 h
  Vz/F, geometric mean (%CV): 99.62 (35) L
  t1/2, arithmetic mean±standard deviation: 2.797 h
[6]
  AUCtau, geometric mean (%CV): 1695 (34) ng.h/mL
  CL/F, geometric mean (%CV): 14.78 (34) L/h
  Cmax, geometric mean (%CV): 382.4 (33) ng/mL
  Cmin, geometric mean (%CV): 37.63 ng/mL
  Rac (observed accumulation ratio based on AUC), geometric mean (%CV): 1.045 (17)
  Tmax, median (range): 1.95 h
  Vz/F, geometric mean (%CV): 57.62 (29) L
  t1/2, arithmetic mean±standard deviation: 2.733 h
[7]
  AUCtau, individual value(s): 2060 ng·h/mL and 2360 ng·h/mL
  CL/F, individual value(s): 14.8 L/h and 17.0 L/h
  Cmax, individual value(s): 362 ng/mL and 399 ng/mL
  Cmin, individual value(s): 52.1 ng/mL and 80.4 ng/mL
  Rac (observed accumulation ratio based on AUC), individual value(s): 0.822
  Tmax, median (range): 2.01 h
  Vz/F, individual value(s): 70.8 L
  t1/2, individual value(s): 11900 s
[8]
  AUCtau, geometric mean (%CV): 1372 (39) ng.h/mL
  CL/F, geometric mean (%CV): 25.54 (39) L/h
  Cmax, geometric mean (%CV): 290.2 (29) ng/mL
  Cmin, geometric mean (%CV): 25.56 (8) ng/mL
  Rac (observed accumulation ratio based on AUC), geometric mean (%CV): 0.8893
  Tmax, median (range): 2.23 h
  Vz/F, geometric mean (%CV): 99.03 (48) L
  t1/2, arithmetic mean±standard deviation: 2.752 h
[9]
  AUCtau, geometric mean (%CV): 1607 (34) ng.h/mL
  CL/F, geometric mean (%CV): 21.99 (44) L/h
  Cmax, geometric mean (%CV): 335.2 (22) ng/mL
  Cmin, geometric mean (%CV): 25.63 ng/mL
  Rac (observed accumulation ratio based on AUC), geometric mean (%CV): 1.260 (25)
  Tmax, median (range): 1.98 h
  Vz/F, geometric mean (%CV): 75.41 (17) L
  t1/2, arithmetic mean±standard deviation: 2.535 h
[10]
  AUCtau, geometric mean (%CV): 1229 (41) ng.h/mL
  CL/F, geometric mean (%CV): 20.35 (41) L/h
  Cmax, geometric mean (%CV): 305.0 (35) ng/mL
  Cmin, geometric mean (%CV): 21.25 ng/mL
  Rac (observed accumulation ratio based on AUC), geometric mean (%CV): 1.191 (29)
  Tmax, median (range): 1.88 h
  Vz/F, geometric mean (%CV): 75.71 (32) L
  t1/2, arithmetic mean±standard deviation: 2.508 h
[11]
  AUCtau, geometric mean (%CV): 1273 (50) ng.h/mL
  CL/F, geometric mean (%CV): 19.63 (49) L/h
  Cmax, geometric mean (%CV): 276.5 (31) ng/mL
  Cmin, geometric mean (%CV): 13.33 ng/mL
  Rac (observed accumulation ratio based on AUC), geometric mean (%CV): 1.268 (35)
  Tmax, median (range): 2.08 h
  Vz/F, geometric mean (%CV): 80.33 (27) L
  t1/2, arithmetic mean±standard deviation: 2.468 h
[12]
  AUCtau, geometric mean (%CV): 636.8 (59) ng.h/mL
  CL/F, geometric mean (%CV): 47.08 (59) L/h
  Cmax, geometric mean (%CV): 82.1 ng/mL
  Cmin, geometric mean (%CV): 45.78 (49) ng/mL
  Tmax, median (range): 2.99 (0.000–4.00) h
[13]
  AUCinf, individual value(s): 584 ng·h/mL and 713 ng·h/mL
  AUClast, geometric mean (%CV): 469.7 (63) ng.h/mL
  CL/F, individual value(s): 28.0 L/h and 34.3 L/h
  Cmax, geometric mean (%CV): 39 ng/mL
  Tmax, median (range): 12.0 (6.00–12.0) h
  Vz/F, individual value(s): 163 L and 496 L
  t1/2, individual value(s): 14500 s and 36000 s
[14]
  AUCinf, geometric mean (%CV): 687.8 (73) ng.h/mL
  AUClast, geometric mean (%CV): 639.7 (67) ng.h/mL
  CL/F, geometric mean (%CV): 29.05 (73) L/h
  Cmax, geometric mean (%CV): 73.7 ng/mL
  Tmax, median (range): 5.33 (2.00–6.00) h
  Vz/F, geometric mean (%CV): 218.1 (50) L
  t1/2, arithmetic mean±standard deviation: 6.778 ± 5.7890 h
RDE 25 mg twice daily, Ceff from HCC1428, HCC1806, and Ovar3 models
  Part of dosing interval with mean steady-state PK concentrations above predicted effective concentrations (Ceff): at least 70 % of the dosing interval
RDE 25 mg twice daily, Ceff from the MCF7 model
  Criterion of concentrations above Ceff for at least 70% of the dosing interval: not achieved
In vivo
  Plasma exposures, monotherapy vs combination therapy with fulvestrant or letrozole: largely comparable
